Source: paper PMC2879362, “Design of Group IIA Secreted/Synovial Phospholipase A2 Inhibitors: An Oxadiazolone Derivative Suppresses Chondrocyte Prostaglandin E2 Secretion” (PLoS ONE, 2010)

Tests used:
[1] = target: T1, human GIIAPLA2 (hGIIAPLA2) (Homo sapiens, UniProt P14555); assay: In vitro fluorimetric PLA2 assay (β-py-C10-PG substrate); assay type: biochemical; conditions: 2 µM β-py-C10-PG, 1 ng/mL hGIIAPLA2
T1 construct: hGIIAPLA2 was prepared as previously described [33]; made in house
T1 sequence (P14555 21-144): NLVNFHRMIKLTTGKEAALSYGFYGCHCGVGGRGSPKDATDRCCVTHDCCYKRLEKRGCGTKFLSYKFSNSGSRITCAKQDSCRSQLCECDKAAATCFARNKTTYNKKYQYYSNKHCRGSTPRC
Protocol: (§1) The compounds C1-C8 were submitted to fluorimetric assay to determine their inhibitory potencies and selectivity towards human GIIAPLA2 (hGIIAPLA2) versus porcine group IB PLA2 (pGIBPLA2) (Table 2). GIBPLA2 is an enzyme of the same family as GIIAPLA2 (sPLA2) but is mainly involved in digestion of dietary phospholipids and is secreted by the pancreas. Lipophilicity parameters, log P, of these products are calculated by use of Rekker's fragmental data (Table 2). The molecules C1-C8 are specific inhibitors of hGIIAPLA2 because none inhibited pGIBPLA2 at the highest concentration tested (100 µM). Such selectivity implies that C1-C8 should not interfere with the digestion process.
(§2) Fatty-acid free BSA and pancreatic PLA2 were from Sigma. hGIIAPLA2 was prepared as previously described. The fluorescent substrate for PLA2 assay, 1-hexadecanoyl-2-(10-pyrenedecanoyl)-sn-glycero-3-phosphoglycerol, ammonium salt (β-py-C10-PG) was from Molecular Probes (Eugene). PLA2 activity was evaluated as previously described with β-py-C10-PG used as a substrate (2 µM final concentration). In a total volume of 1 mL, the standard reaction medium contained 50 mM Tris-HCl (pH 7.5), 500 mM NaCl, 1 mM EGTA, 2 µM β-py-C10-PG, 0.1% fatty-acid free BSA and 6 ng/mL pancreatic PLA2 or 1 ng/mL hGIIAPLA2. The fluorescence (λex = 342 nm and λem = 398 nm) of the enzymatic reaction medium was recorded for 3 min with use of a spectrofluorimeter LS 50 (Perkin-Elmer) equipped with a Xenon lamp. The reaction was initiated by the addition of CaCl2 (10 mM, final concentration). The increase in fluorescence was continuously recorded for 1 min, and PLA2 activity was calculated as previously described. When used, the inhibitor was added to the reaction medium after introduction of BSA. The activity is expressed in micromoles of fluorescent β-py-C10-PG hydrolyzed per min. The standard error of the mean of three independent experiments was less than 10%, which allows for the determination of the IC50 values (concentration of inhibitors producing 50% inhibition) of each compound.

[2] = target: T2, porcine group IB PLA2 (pGIBPLA2) (Sus scrofa, UniProt P00592); assay: as above; assay type: biochemical; conditions: 2 µM β-py-C10-PG, 6 ng/mL pancreatic PLA2
T2 construct: purchased Sigma
T2 sequence (P00592 23-146): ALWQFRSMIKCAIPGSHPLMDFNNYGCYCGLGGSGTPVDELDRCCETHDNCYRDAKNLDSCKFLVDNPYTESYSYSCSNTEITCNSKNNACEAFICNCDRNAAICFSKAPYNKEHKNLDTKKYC
Protocol: as §1, §2

[3] = tested on: IL-1β-stimulated PGE2 secretion in articular chondrocytes; assay: IL-1β-stimulated PGE2 secretion in articular chondrocytes (EIA); assay type: cell-based, rabbit; conditions: C1 at 8 µM, IL-1β 1 ng/mL (data not shown)
Protocol: We tested the effect of C8 on the IL-1β-stimulated secretion of PGE2 in chondrocytes. PGE2 synthesis takes place mainly in response to cell activation by IL-1β, and its generation accounts for many of the actions induced by this cytokine. In vitro, IL-1β induces the expression of COX-2 by chondrocytes, which results in increased PGE2 production. PGE2 release thus represents a powerful IL-1β- and PLA2-dependent inflammatory marker in our cell model. Chondrocytes were treated for 20 h with IL-1β alone or 1 h after the addition of C8. […] In DMEM alone, at concentrations of 0.31-, 0.62-, 0.94-, and 1.24-µM, C8 decreased the production of PGE2 induced by IL-1β by 59-, 58-, 74-, and 80-%, respectively (Fig. 4A). In DMEM supplemented with 0.1% BSA, at concentrations of 0.31-, 0.62-, 0.94-, 1.24-, 2.48-, and 4.96-µM, C8 decreased the production of PGE2 induced by IL-1β by 31-, 30-, 45-, 43-, 81-, and 92-%, respectively (Fig. 4B). In DMEM supplemented with 2% FCS, at concentrations of 0.31-, 0.62-, 0.94-, 1.24-, 2.48-, and 4.96-µM, C8 decreased the production of PGE2 induced by IL-1β by 26-, 48-, 49-, 54-, 68-, and 68-%, respectively (Fig. 4C). […] The effect of C8 was then evaluated at the extreme concentrations (0.31- and 4.96-µM) in DMEM supplemented with 2% FCS and containing decreasing (1-, 0.5-, and 0.25-ng/mL) IL-1β concentrations (Table 3). The anti-IL-1β inhibitory effect of C8 at 0.31 µM increases when IL-1β concentration decreases. […] This is probably due to the fact that at 4.96 µM, the inhibitory effect of C8 on IL-1β-induced PGE2 production is maximal. […] Thus, C8, but not C1, decreases the IL-1β-stimulated PGE2 secretion in a dose-dependent manner in the three culture medium compositions used.
Articular chondrocytes were isolated from 5-week-old Fauve de Bourgogne female rabbits (CPA, Orleans, France) and cultured at the first passage in conditions avoiding cell dedifferentiation as previously described. Cells were cultured at 37°C in 12-well plates in Ham's F-12 medium containing 10% FCS, 20 IU/mL penicillin, and 20 µg/mL streptomycin (all from Invitrogen) until nearly confluent. Then medium was replaced with DMEM (Invitrogen) containing 20 IU/mL penicillin, and 20 µg/mL streptomycin and, if necessary, 0.1% fatty acid free BSA (Sigma) or 2% FCS. At this time the C8 compound dissolved in DMSO (Sigma) was added to the medium (the amount of DMSO was kept at 1‰ (v/v) in all the wells). 1 h after the addition of C8, IL-1β (PeproTech) was added to the medium. Consequently, chondrocytes were incubated for 20 h with IL-1β and for 21 h with C8.
20 h after the addition of IL-1β to the chondrocytes, culture media were collected, and aliquots were stored at −80°C until PGE2 and nitrite quantification. PGE2 concentration in culture media was determined by use of an enzyme immunoassay (EIA) kit (PGE2 EIA Kit-monoclonal; Cayman Chemical). Nitrite concentration was determined by a spectrophotometry method based on the Griess reaction. Briefly, 200 µL of culture medium or sodium nitrite (NaNO2, Merck) standard dilutions were mixed with 100 µL Griess reagent [0.5% (w/v) sulphanilic acid (Merck), 0.05% (w/v) N(1-naphtyl)ethylenediamine (Merck), 30% (v/v) acetic acid, 1.5 N HCl] and incubated for 10 min at 50°C. The absorbance was measured at 540 nm.

[4] = tested on: atherosclerosis in apolipoprotein-E-null mice; set-up: method as in PMID 19129734; conditions: cited from earlier work

| SMILES | IC50 [1] [µM] | IC50 [2] [µM] | effect on PGE2 secretion stimulated by IL-1β [3] | effect on atherosclerosis [4] |
| --- | --- | --- | --- | --- |
| O=c1[nH]c(Cc2ccc(OCCCCCn3ccc4ccccc43)cc2)no1 [C1, 3-{4-[5-(indol-1-yl)pentoxy]benzyl}-4H-1,2,4-oxadiazol-5-one] | 5 ± 0.7 | > 100 | does not decrease |  |
| O=c1[nH]c(Cc2ccc(OCCCCCOc3ccccc3-c3ccccc3)cc2)no1 [C2] | 10 ± 1.5 | > 100 |  |  |
| Cc1nc2cc(OCCCCCOc3ccc(Cc4noc(=O)[nH]4)cc3)ccc2s1 [C3] | 5 ± 1.2 | > 100 |  |  |
| O=c1[nH]c(Cc2ccc(OCCCCCn3ccc4cc(Cl)ccc43)cc2)no1 [C4] | 6.5 ± 1.8 | > 100 |  |  |
| COc1ccc2c(ccn2CCCCCOc2ccc(Cc3noc(=O)[nH]3)cc2)c1 [C5] | 2.5 ± 0.5 | > 100 |  |  |
| O=c1[nH]c(Cc2ccc(OCCCCCOc3ccc(-c4ccccc4)cc3)cc2)no1 [C6] | 3 ± 0.2 | > 100 |  |  |
| O=c1[nH]c(Cc2ccc(OCCCCCOc3ccccc3)cc2)no1 [C7] | 35 ± 1.8 | > 100 |  |  |
| CCc1c(C(=O)C(N)=O)c2c(OCC(=O)O)cccc2n1Cc1ccccc1 [Varespladib] |  |  |  | reduce atherosclerosis |
